Assay [1] relates to cholestasis rat induced by ANIT. Description: Efficacy on the cholestasis rat model induced by 1-naphthyl isothiocyanate (ANIT). On the set-up: ALT / AST / GGT / TBA: unit not given here. The conditions noted are these: for level of ALT, AST, GGT and TBA in the serum of ANIT rat (in words): 3 and 10 mg/kg/d, conclusion of Test Example 2; for ALT / AST / GGT / TBA: serum, 4 days, ANIT rat. The assay is classed as in vivo, SD rats. On the procedure:
Animals: SD rats, male, 7 to 8 weeks old, weight: 220 to 240 g, purchased from Beijing Vital River Laboratory Animal Technology Co., Ltd., SPF grade, Certificate No.: SCXK (Beijing) 2016-0011, license issuing administration: Beijing Municipal Commission of Science and Technology.
Sample formulation: The compound of the present invention was added to DMSO, and dissolved completely by ultrasound. 0.5% CMC-Na was added to constant volume (DMSO: 0.5% CMC-Na=1:99), and the solution was homogenized by ultrasound for later use.
After 3 to 5 days of acclimation, the animals were divided into 20 groups according to body weight: normal group, model group, Example 8 (3 mg/kg/d, 10 mg/kg/d) group, Example 11 (3 mg/kg/d, 10 mg/kg/d) group, Example 12 (3 mg/kg/d, 10 mg/kg/d) group, Example 14 (3 mg/kg/d, 10 mg/kg/d) group, Example 20 (3 mg/kg/d, 10 mg/kg/d) group, Example 22 (3 mg/kg/d, 10 mg/kg/d) group, Example 26 (3 mg/kg/d, 10 mg/kg/d) group, Example 28 (3 mg/kg/d, 10 mg/kg/d) group, and Example 29 (3 mg/kg/d, 10 mg/kg/d) group, with 10 rats for each group. Intragastric administration was conducted with an administration volume of 10 mL/kg, once a day, for a total of 4 days. On Day 2, ANIT (1-naphthyl isothiocyanate, Macklin, purity: 98%, item number: N814658, CAS number: 551-06-4, specification: 5 g/bottle, storage conditions: 2 to 8 degrees, batch number: C10116101) with a dose of 50 mg/kg and an administration volume of 5 mL/kg was administered intragastrically once to each animal (except for animals in the normal group) 4 hours after the administration. The animals were fasted on Day 4 morning. The animals were anesthetized by isoflurane inhalation using a small animal anesthesia machine. Blood was collected from the venous plexus behind the eyeball using a capillary glass tube (about 1 ml per animal), and then left to stand for about one hour. It was centrifuged at 3500 rpm for 10 minutes to obtain the serum. ALT, AST, GGT and TBA indexes as well as the plasma concentration of the compound were determined using an AU480 automatic biochemical analysis system (BECKMAN COULTER). Liver was collected, weighed, and cutted into pieces. Normal saline was added (liver weight: normal saline=1:2), and the mixture was homogenized and freezed. The concentration of the compound in liver was determined using an ultra performance liquid chromatograph (Shimadzu, LC 30AD) and triple quadrupole mass spectrometer (AB, TQ5500).

The next assay concerns the target T1, FXR (Homo sapiens, UniProt Q96RI1).
T1 sequence (Q96RI1 262-486 limits assumed): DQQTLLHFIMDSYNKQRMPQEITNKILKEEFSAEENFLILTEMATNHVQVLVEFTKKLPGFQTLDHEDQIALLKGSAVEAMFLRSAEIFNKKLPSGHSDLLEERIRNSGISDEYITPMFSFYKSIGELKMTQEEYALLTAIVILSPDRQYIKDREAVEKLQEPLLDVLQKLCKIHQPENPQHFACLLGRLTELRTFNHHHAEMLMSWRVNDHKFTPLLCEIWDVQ
Description: FXR agonistic activity, luciferase assay. The settings on record: luc2P-GAL4-HEK293 cells transfected with pBIND-FXR, 24 hours. The assay is classed as cell-based. On the procedure:
The FXR agonistic activity of the compound of the present invention was evaluated using the luciferase assay.
The experimental process comprises the follows. The luc2P-GAL4-HEK293 stably transfected cell line (the cell line was established by transfecting pGL4.35 plasmid with HEK293 cells which was then subjected to Hygromycin B screening. The cell contained 9×GAL4 UAS and firefly luciferase reporter gene. The ligand-activated LBD-GAL4 DBD fusion protein can enter the nucleus to bind to 9×GAL4 UAS and activate the transcription of the downstream luciferase reporter gene) was transferred to a 96-well plate with […] per well. pBIND-FXR (Which was constructed by inserting FXR-LBD into pFN26A-BIND hRluc-neo Flexi® vector. The plasmid was 7.5 kb in size, Amp resistant, contained FXR-LBD, and can express FXR-LBD and GAL4 DBD fusion proteins) was transfected using X-tremeGENE HP transfection reagent. The ratio of plasmid to transfection reagent was 1 μg: 2 μl. The specific amount was 100 ng of plasmid and 0.2 μl of X-tremeGENE HP transfection reagent per well. The test compounds (the highest concentration of each compound was 30 μM, 3-fold dilution, a total of 10 concentrations) were added to induce the expression of luciferase. After 24 hours, the 96-well plate containing the test cells was taken out from the incubator, and placed at room temperature. Dual-Glo® Luciferase Reagent with the volume equal to the volume of the medium in the well (80 μl/well) was added to each well and mixed well. The plate was incubated at room temperature for 20 minutes to allow the cells to be fully lysed. All the liquid in the plate was transferred to a 96-well microtiter plate, and the firefly luciferin value was measured with a multi-function plate reader (manufacturer: Bio Tek (USA); model: Synergy4). Dual-Glo® a Stop & Glo® Reagent with the volume equal to the volume of the initial medium (80 μl/well) was added to each well and mixed well. The plate was incubated at room temperature for 10 minutes, and the renilla luciferin value was measured. The measurement order of renilla fluorescence should be the same as that of firefly fluorescence. Curve fitting and EC50 calculation were conducted using GraphPad Prism 5 software by nonlinear regression method. The fitting equation is: Y=Bottom+(Top−Bottom)/(1+10^((Log EC50−X)*HillSlope)), wherein EC50 refers to the semi-effective concentration, Top refers to the maximum effect, Bottom refers to the blank effect, and HillSlope refers to the slope.

Four molecules from US20220127258A1, “AROMATIC RING OR HETEROAROMATIC RING COMPOUNDS, PREPARATION METHOD THEREFOR AND MEDICAL USE THEREOF” (The National Institutes of Pharmaceutical R&D Co., Ltd., priority 2019, published 2022) can be followed below.

Take `O=C(O)c1ccc(-c2nnc(N3[C@@H]4CC[C@H]3C[C@@H](OCc3c(-c5ccccc5OC(F)(F)F)noc3C3CC3)C4)o2)cc1` [Example 22, 4-(5-((1R,3r,5S)-3-((5-cyclopropyl-3-(2-(trifluoromethoxy)phenyl)isoxazol-4-yl)methoxy)-8-azabicyclo[3.2.1]octan-8-yl)-1,3,4-oxadiazol-2-yl)benzoic acid]: the “level of ALT, AST, GGT and TBA in the serum of ANIT rat (in words)” value (shortened to “level of ALT, AST, GGT and TBA”) in assay [1] is on record as “significantly reduce”. In assay [1] (3 mg/kg/d intragastric), this molecule showed an ALT of 100.8 ± 90.9, an AST of 324.8 ± 313.1, a GGT of 2.7 ± 1.7 and a TBA of 73.3 ± 103.2. In assay [1] (10 mg/kg/d intragastric), this molecule displayed an ALT of 44.5 ± 8.1, an AST of 163.3 ± 21.3, a GGT of 1.8 ± 0.5 and a TBA of 27.4 ± 13.6. For the same molecule, on FXR, the EC50 is below 0.025 µM.

Consider `Cc1cc(C(=O)O)ccc1-c1nnc(N2[C@@H]3CC[C@H]2C[C@@H](OCc2c(-c4c(Cl)cccc4Cl)noc2C2CC2)C3)o1` [Example 14], for which, in assay [1], the “level of ALT, AST, GGT and TBA” value is “significantly reduce”. In assay [1] (3 mg/kg/d intragastric), the ALT is on record as 220.3 ± 104.0, the AST was found to be 643.3 ± 239.3, the GGT was 4.6 ± 1.3 and the TBA was 235.8 ± 80.1. In assay [1] (10 mg/kg/d intragastric), this molecule returned an ALT of 45.5 ± 11.9, an AST of 181.4 ± 20.8, a GGT of 1.7 ± 0.4 and a TBA of 20.3 ± 12.3. Besides, the EC50 at FXR is below 0.025 µM.

Take `O=C(O)c1ccc(-c2nnc(N3[C@@H]4CC[C@H]3C[C@@H](OCc3c(-c5c(Cl)cccc5Cl)noc3C3CC3)C4)o2)s1` [Example 11]: the “level of ALT, AST, GGT and TBA” value in assay [1] was “significantly reduce”. In assay [1] (3 mg/kg/d intragastric), this molecule displayed an ALT of 276.3 ± 118.0, an AST of 761.3 ± 253.7, a GGT of 4.9 ± 0.9 and a TBA of 243.4 ± 72.4. In addition, in assay [1] (10 mg/kg/d intragastric), the ALT is reported as 180.3 ± 107.8, the AST amounted to 466.1 ± 242.4, the GGT was 3.7 ± 1.5 and the TBA worked out at 190.3 ± 140.7. For the same molecule, on FXR, the EC50 is 0.1 to 0.5 µM.

With `O=C(O)c1ccc(-c2nnc(N3[C@@H]4CC[C@H]3C[C@@H](OCc3c(-c5c(Cl)cccc5Cl)noc3C3CC3)C4)o2)cc1` [Example 8, 4-(5-((1R,3r,5S)-3-((5-cyclopropyl-3-(2,6-dichlorophenyl)isoxazol-4-yl)methoxy)-8-azabicyclo[3.2.1]octan-8-yl)-1,3,4-oxadiazol-2-yl)benzoic acid], in assay [1], the “level of ALT, AST, GGT and TBA” value is listed as “significantly reduce”. In assay [1] (3 mg/kg/d intragastric), this molecule yielded an ALT of 164.8 ± 85.0, an AST of 401.8 ± 172.8, a GGT of 2.5 ± 0.7 and a TBA of 100.0 ± 99.8. In assay [1] (10 mg/kg/d intragastric), this molecule showed an ALT of 79.9 ± 98.7, an AST of 243.5 ± 192.6, a GGT of 2.0 ± 0.5 and a TBA of 32.9 ± 68.0. Also, the EC50 at FXR was below 0.025 µM.

Usually EC50 stands for the concentration needed to bring the measured effect to its halfway point.
